# According to patent US4416885A, “Use of isopropylaminopyrimidine in the chemotherapy of muscular dystrophy, myopathy and myotonia” (priority 1982, dated 1983):
# Legend:
# dystrophic chickens 413 = assay: Experiment 4, weight of dystrophic chickens injected with IAPP; type: in vivo, chicken; conditions: for Weight: 50 mg/Kg
# Procedure: All chickens were injected with 50 mg/Kg IAPP and weighed approximately every second or third day.
# A: Control-injected with PBS
# B, C, D: Experimental-injected with 50 mg/Kg IAPP
# [1] = test system: 413 dystrophic skeletal explants; assay: Effect on dystrophic skeletal explants in cell culture (microtubules); type: cell-based, chicken; conditions: upon incubation in IAPP, 0.5 mg/ml; skeletal and cardiac explants
# Procedure: In these experiments 2-week and 3-week normal and dystrophic chickens (that had no previous injections with IAPP) were sacrificed and skeletal and cardiac explants were placed in culture with 0.5 mg/ml IAPP added. The pooled results of these experiments are as follows: […]
# [2] = test system: dystrophic New Hampshire chickens, line 413; assay: Wing apposition (WA) measurements; type: in vivo, chicken
# Procedure: The compound IAPP was tested on dystrophic New Hampshire chickens, line 413, and Imperial College (London, England) sub-line of the original Davis, University of California strain. The chickens are homozygous for muscular dystrophy, the disease appearing with 100% incidence.
# This can be defined as the minimum separation in cm to which the two wing tips can be passively raised, providing a measure of the characteristic loss is flexibility of the wing muscle-tendon system. The test is performed once weekly. In dystrophic birds, WA changes after the first three weeks of life from 0 cm (wings raised and touching) to about 18 cm at 3 months (wings stiff and can barely be raised). The normal controls maintain a score of 0 cm throughout. […]
# Finally, oral therapy with IAPP was undertaken at gradually increasing dosages up to 1 g/Kg/day. The parameters (physical, biochemical and histological) measured previously were again used to test the efficacy of the drug; five different dosages were used orally, each being given for 30-60 days, daily (Tables VII-XI). A total of 75 animals were treated in the current study with IAPP and 70 control animals were used.
structure (smiles),measurement,setting,value
"CC(C)Nc1ncccn1.O=P(O)(O)O [IAPP, 2-isopropylaminopyrimidine orthophosphate]",Toxic side effect,"dystrophic chickens 413; Exp. 4, 50 mg/Kg injected, normal and dystrophic chickens",There did not appear to be a toxic side effect
same,Weight,"dystrophic chickens 413; Exp. 4, 413B, day 1",48.3 GRAMS
same,Weight,"dystrophic chickens 413; Exp. 4, 413B, day 4",51.2 GRAMS
same,Weight,"dystrophic chickens 413; Exp. 4, 413B, day 7",56.7 GRAMS
same,Weight,"dystrophic chickens 413; Exp. 4, 413B, day 9",58.1 GRAMS
same,Weight,"dystrophic chickens 413; Exp. 4, 413C, day 1",36.9 GRAMS
same,Weight,"dystrophic chickens 413; Exp. 4, 413C, day 4",44.4 GRAMS
same,Weight,"dystrophic chickens 413; Exp. 4, 413C, day 7",49.9 GRAMS
same,Weight,"dystrophic chickens 413; Exp. 4, 413C, day 9",45.2 GRAMS
same,Weight,"dystrophic chickens 413; Exp. 4, 413C, day 11",53.2 GRAMS
same,Weight,"dystrophic chickens 413; Exp. 4, 413C, day 14",77.4 GRAMS
same,Weight,"dystrophic chickens 413; Exp. 4, 413C, day 16",90.5 GRAMS
same,Weight,"dystrophic chickens 413; Exp. 4, 413C, day 17",104.8 GRAMS
same,Weight,"dystrophic chickens 413; Exp. 4, 413D, day 1",44.5 GRAMS
same,Weight,"dystrophic chickens 413; Exp. 4, 413D, day 4",51.2 GRAMS
same,Weight,"dystrophic chickens 413; Exp. 4, 413D, day 7",59.8 GRAMS
same,Weight,"dystrophic chickens 413; Exp. 4, 413D, day 9",56.5 GRAMS
same,Weight,"dystrophic chickens 413; Exp. 4, 413D, day 11",65.4 GRAMS
same,Weight,"dystrophic chickens 413; Exp. 4, 413D, day 14",93.7 GRAMS
same,Weight,"dystrophic chickens 413; Exp. 4, 413D, day 16",115.1 GRAMS
same,Weight,"dystrophic chickens 413; Exp. 4, 413D, day 20",161.3 GRAMS
same,Weight,"dystrophic chickens 413; Exp. 4, 413D, day 22",210.2 GRAMS
same,Weight,"dystrophic chickens 413; Exp. 4, 413D, day 25",240.7 GRAMS
same,Staining of microtubules in dystrophic cells in culture,[1],appears to normalize upon incubation in IAPP
same,"WA, treated","[2]; 200 mg/Kg i.p. daily for 30 days, day 28 ex ovo, control 0.4",1.0 cm
same,"WA, treated","[2]; 200 mg/Kg i.p. daily for 30 days, day 45 ex ovo, control 0.6",1.5 cm
same,"WA, treated","[2]; 200 mg/Kg i.p. daily for 30 days, day 84 ex ovo, control 8.3",8.6 cm
same,"WA, treated","[2]; 300 mg/Kg i.p. daily for 30 days, day 28 ex ovo, control 0.4",0.3 cm
same,"WA, treated","[2]; 300 mg/Kg i.p. daily for 30 days, day 45 ex ovo, control 0.6",1.6 cm
same,"WA, treated","[2]; 300 mg/Kg i.p. daily for 30 days, day 84 ex ovo, control 9.3",14.4 cm
same,"WA, treated","[2]; 300 mg/Kg i.p. three times weekly for 30 days, day 28 ex ovo, control 0.4",0.3 cm
same,"WA, treated","[2]; 300 mg/Kg i.p. three times weekly for 30 days, day 45 ex ovo, control 0.6",2.0 cm
same,"WA, treated","[2]; 300 mg/Kg i.p. three times weekly for 30 days, day 84 ex ovo, control 8.3",11.1 cm
same,"WA, treated","[2]; Exp. 2, 40 mg/Kg i.p. daily, day 7-13, control 0",0 cm
same,"WA, treated","[2]; Exp. 2, 40 mg/Kg i.p. daily, day 14-20, control 0",0 cm
same,"WA, treated","[2]; Exp. 2, 40 mg/Kg i.p. daily, day 21-27, control 0",0 cm
same,"WA, treated","[2]; Exp. 2, 40 mg/Kg i.p. daily, day 28-34, control 0",0 cm
same,"WA, treated","[2]; Exp. 2, 40 mg/Kg i.p. daily, day 35-41, control 2.1",0 cm
same,"WA, treated","[2]; Exp. 2, 40 mg/Kg i.p. daily, day 42-48, control 4.7",2.3 cm
same,"WA, treated","[2]; Exp. 2, 40 mg/Kg i.p. daily, day 56-62, control 5.7",2.9 cm
same,"WA, treated","[2]; Exp. 2, 40 mg/Kg i.p. daily, day 63-71, control 7.5",6.1 cm
same,"WA, treated","[2]; Exp. 3, 70 mg/Kg i.p. daily, day 14-20, control 0",0 cm
same,"WA, treated","[2]; Exp. 3, 70 mg/Kg i.p. daily, day 21-27, control 0",0 cm
same,"WA, treated","[2]; Exp. 3, 70 mg/Kg i.p. daily, day 28-34, control 0",0 cm
same,"WA, treated","[2]; Table VII, oral 200 mg/Kg, 60 days, day 28 ex ovo, control 0.8",0.8 cm
same,"WA, treated","[2]; Table VII, oral 200 mg/Kg, 60 days, day 35 ex ovo, control 1.2",2.5 cm
same,"WA, treated","[2]; Table VII, oral 200 mg/Kg, 60 days, day 45 ex ovo, control 3.4",4.3 cm
same,"WA, treated","[2]; Table VII, oral 200 mg/Kg, 60 days, day 60 ex ovo, control 9.6",10.7 cm
same,"WA, treated","[2]; oral 300 mg/Kg daily, day 28 ex ovo, control 1.6",1.4 cm
same,"WA, treated","[2]; oral 300 mg/Kg daily, day 35 ex ovo, control 1.3",4.5 cm
same,"WA, treated","[2]; oral 450 mg/Kg daily for 45 days, day 28 ex ovo, control 0.2",0.7 cm
same,"WA, treated","[2]; oral 450 mg/Kg daily for 45 days, day 35 ex ovo, control 2.8",1.9 cm
same,"WA, treated","[2]; oral 450 mg/Kg daily for 45 days, day 45 ex ovo, control 5.5",5.8 cm
same,"WA, treated","[2]; oral 450 mg/Kg daily for 45 days, day 50 ex ovo, control 6.2",7.6 cm
same,"WA, treated","[2]; oral 600 mg/Kg daily, day 28 ex ovo, control 0.2",0.3 cm
